Reference: US20110230472A1, “RING-FUSED AZOLE DERIVATIVE HAVING PI3K-INHIBITING ACTIVITY” (Shionogi & Co., Ltd., priority 2008, published 2011)

Assays:
PI-3 kinase γ [1] = target: T1, PI-3 kinase γ (Homo sapiens, UniProt P48736); assay: PI3Kγ inhibitory activity, PI3-kinase HTRF assay (inhibition ratio); assay type: biochemical; conditions: 0.5 h; for inhibition at 50 µM: compound at 50 μM
Procedure, shortened: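 PI3Kγ preincubated 10 min with compound and PIP2 substrate (MgCl2, DTT), then ATP added for 30 min at room temperature. PIP3 detected by HTRF (665/620 nm ratio) after 18 h. Inhibition ratio at 50 or 10 μmol/L, normalised to no-compound and no-enzyme controls.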

[2] = target: T2, human ether-a-go-go related gene (hERG) channel (Homo sapiens, UniProt Q12809); assay: hERG test, whole-cell patch-clamp; assay type: cell-based; conditions: HEK293 cell expressing hERG; applied for 10 minutes; concentration not given
T2 construct: expressed in transfected cells; host or cells: HEK293
From the text: For the purpose of risk evaluation of QT interval extension of electrocardiogram, the activity on delayed rectification K^+ current (IKr), which plays an important role in a cardiac ventricle repolarization process, was examined using the HEK293 cell that was made to express human ether-a-go-go related gene (hERG) channel.
Using an automatic patch-clamp system (PatchXpress 7000A, Axon Instruments Inc.), by a whole-cell patch-clamp method, after the cell was maintained at a membrane potential of −80 mV, IKr induced upon applying depolarizing stimulation of +50 mV for 2 seconds and further applying repolarizing stimulation of −50 mV for 2 seconds was recorded. After generated electric current became stable, a test substance dissolved at an intended concentration in extracellular fluid (137 mmol/L NaCl, 4 mmol/L KCl, 1.8 mmol/L CaCl2.2H2O, 1 mmol/L MgCl2.6H2O, 10 mmol/L glucose, 10 mmol/L HEPES (4-(2-hydroxyethyl)-1-piperazineethanesulfonic acid), pH=7.4) was applied to the cell for 10 minutes under room temperature condition. From the obtained IKr, the absolute value of the maximum tail current was measured using analysis software (DataXpress ver. 1, Molecular Devices Corporation) and the value of the electric current in a maintained membrane potential as baseline. Moreover, an inhibition ratio for the maximum tail current prior to the application of the test substance was calculated and then compared with a group of media-application (0.1% dimethylsulfoxide solution) to evaluate influence of the test substance on IKr.

[3] = system: AKT phosphorylation in human monocyte-like cell line THP-1; assay: AKT phosphorylation inhibitory activity in MCP-1-stimulated THP-1 cells (ELISA); assay type: cell-based; conditions: 1 μmol/L solution of each compound, MCP-1 stimulation, read-out: AKT phosphorylation inhibition ratio
Experimental: (1) The AKT phosphorylation inhibitory activity of a compound was evaluated according to the following procedure. (2) Human monocyte-like cell line THP-1 was washed with RPMI-1640 media, incubated in the presence of 5% CO2 at 37° C. for 3 hours, washed with Hank's balanced salt solution (HBSS), adjusted to a cell concentration of 6.6×10^6/mL, and then used in an experiment. (3) 30 μL of the cell suspension and 60 μL of each compound solution containing 0.2% DMSO/HBSS were mixed and then preincubated at 37° C. for 5 minutes. 30 μL of HBSS containing 4 μg/mL of MCP-1 was added thereto and then incubated for 30 seconds at 37° C. (4) 30 μl of a cell lysate (20 mmol/L Tris-HCl (pH 7.5), 150 mmol/L NaCl, 1 mmol/L Na2EDTA, 1 mmol/L EGTA, 1% Triton, 2.5 mmol/L sodium pyrophosphate, 1 mmol/L β-glycerophosphate, 1 mmol/L Na3VO4, 1 μg/ml leupeptin, 50 nmol/L APMSF) was added thereto to lyse cells. (5) The amount of AKT phosphorylation in the cell lysate was measured by ELISA method. (6) Anti-phospho-Akt (Ser473) antibodies (clone 193H12, derived from a rabbit) were immobilized onto the solid phase of a micro well plate. 100 μL of the prepared cell lysate was added to the micro well plate, incubated for 2 hours at 37° C., and then washed four times with Phosphate Buffered Saline containing 0.05% Tween-20. (7) An anti-AKT1 antibody (clone 2H10, derived from a mouse) was added thereto, incubated for 1 hour at 37° C., washed similarly, and then reacted with an HRP-labeled anti-mouse IgG antibody. (8) After incubating at 37° C. for 30 minutes and then washing similarly, 100 μL of TMB (3,3′,5,5″-tetramethylbenzidine) was added thereto, followed by reacting at room temperature for 30 minutes. (9) 100 μL of 1 mol/L sulfuric acid was added to quench the color reaction and then the absorbance at 450 nm was measured. (10) A series of diluted cell lysates of a positive control (a sample in the absence of a compound) were used to prepare a calibration curve, the amount of AKT phosphorylation in a sample in the absence of MCP-1 was defined as 0% activity to calculate an inhibition ratio. The measurement was performed for a 1 μmol/L solution of each compound.

Metabolic stability test = assay type: in vitro ADME; conditions: human liver microsome 0.5 mg protein/mL, 1 mmol/L NADPH, 37° C.
Experimental: After a subject compound was reacted for a certain time using a pooled human liver microsome commercially available, a reacted sample and an unreacted sample are compared to calculate a survival ratio, and then the degree of metabolism in the liver was evaluated.
0.2 mL of a buffer solution (50 mmol/L of Tris-HCl in pH 7.4, 150 mmol/L of potassium chloride, and 10 mmol/L of magnesium chloride) containing a human liver microsome of 0.5 mg protein/mL was reacted in the presence of 1 mmol/L NADPH at 37° C. for 0 or 30 minutes (oxidative reaction). After reacting, 50 μL of the reaction solution was added to 100 μL of a solution of methanol/acetonitrile (1/1 (v/v)), mixed, and then centrifuged at 3000 rpm for 15 minutes. The test compound in the supernatant was quantitated with LC/MS/MS. The amount of the compound at a reaction time of 0 minute was defined as 100% and, based on that, the percentage of the test compound remained after reacting for 30 minutes was calculated.

Solubility test = assay type: physicochemical; conditions: kinetic from dmso stock; artificial intestinal juice pH 6.8, 1% DMSO, 25° C. for 16 hours
Experimental: The solubility of a compound was determined under a condition in which 1% DMSO was added. 10 mmol/L compound solution was prepared using DMSO, and then 6 μL of the compound solution was added to 594 μL of artificial intestinal juice in pH 6.8 (to 250 mL of 0.2 mol/L potassium dihydrogen phosphate reagent solution was added 118 mL of 0.2 mol/L NaOH reagent solution and water to provide a final volume of 1000 mL). After standing at 25° C. for 16 hours, the mixed solution was filtered with suction. The filtrate was diluted twice with methanol/water (1/1), and then a concentration in the filtration was measured with HPLC or LC/MS/MS by the absolute calibration method.

PI-3 kinase γ [4] = target: T1, PI-3 kinase γ; assay: PI3Kγ inhibitory activity (Ki value), HTRF; assay type: biochemical; conditions: Ki=IC50/(1+10 μM ATP/Km)
Experimental: The PI3Kγ inhibitory activity (Ki value) of a compound was evaluated according to the following procedure:
5 μL of a compound solution containing 10% DMSO and 200 μmol/L of a compound was changed to 5 μL of a compound solution containing 10% DMSO and either 200, 64, 20, 6.4, 2, 0.64, or 0.20 μmol/L of the compound (optionally, this is diluted to a lower concentration). Using a method similar to the method for measuring PI3Kγ inhibitory activity, inhibition ratios were measured in the presence of the compound at 50, 16, 5, 1.6, 0.5, 0.16, and 0.05 μmol/L (optionally, a lower concentration). Then an IC50 value was calculated by a logistic approximation method or the linear regression method using two concentrations that across 50% inhibition. Separately, the ATP concentration in the reaction solution (40 μmol/L ATP, 10 mmol/L MgCl2, 5 mmol/L DTT) at the time of the start of a reaction in the absence of the compound was changed to 80, 40, 20, 10, 5, 2.5, 1.25, or 0.625 μmol/L. Then, HTRF ratios were measured by a similar method. The value obtained by subtracting the HTRF ratio at each ATP concentration from the HTRF ratio in the absence of PI-3 kinase γ was defined as the value obtained by multiplying reaction rate (v) at each ATP concentration with a constant. The Michaelis-Menten constant Km was then calculated by the Lineweaver-Burk plot method. The Ki value of a compound was calculated by the following formula.
Ki=IC50 value/(1+10 μM (test ATP concentration)/Km (μM))
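Throughout, for percentage of the test compound remained after reacting for 30 minutes: 100% equals the compound amount at 0 min reaction.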

T1 sequence (P48736 whole entry): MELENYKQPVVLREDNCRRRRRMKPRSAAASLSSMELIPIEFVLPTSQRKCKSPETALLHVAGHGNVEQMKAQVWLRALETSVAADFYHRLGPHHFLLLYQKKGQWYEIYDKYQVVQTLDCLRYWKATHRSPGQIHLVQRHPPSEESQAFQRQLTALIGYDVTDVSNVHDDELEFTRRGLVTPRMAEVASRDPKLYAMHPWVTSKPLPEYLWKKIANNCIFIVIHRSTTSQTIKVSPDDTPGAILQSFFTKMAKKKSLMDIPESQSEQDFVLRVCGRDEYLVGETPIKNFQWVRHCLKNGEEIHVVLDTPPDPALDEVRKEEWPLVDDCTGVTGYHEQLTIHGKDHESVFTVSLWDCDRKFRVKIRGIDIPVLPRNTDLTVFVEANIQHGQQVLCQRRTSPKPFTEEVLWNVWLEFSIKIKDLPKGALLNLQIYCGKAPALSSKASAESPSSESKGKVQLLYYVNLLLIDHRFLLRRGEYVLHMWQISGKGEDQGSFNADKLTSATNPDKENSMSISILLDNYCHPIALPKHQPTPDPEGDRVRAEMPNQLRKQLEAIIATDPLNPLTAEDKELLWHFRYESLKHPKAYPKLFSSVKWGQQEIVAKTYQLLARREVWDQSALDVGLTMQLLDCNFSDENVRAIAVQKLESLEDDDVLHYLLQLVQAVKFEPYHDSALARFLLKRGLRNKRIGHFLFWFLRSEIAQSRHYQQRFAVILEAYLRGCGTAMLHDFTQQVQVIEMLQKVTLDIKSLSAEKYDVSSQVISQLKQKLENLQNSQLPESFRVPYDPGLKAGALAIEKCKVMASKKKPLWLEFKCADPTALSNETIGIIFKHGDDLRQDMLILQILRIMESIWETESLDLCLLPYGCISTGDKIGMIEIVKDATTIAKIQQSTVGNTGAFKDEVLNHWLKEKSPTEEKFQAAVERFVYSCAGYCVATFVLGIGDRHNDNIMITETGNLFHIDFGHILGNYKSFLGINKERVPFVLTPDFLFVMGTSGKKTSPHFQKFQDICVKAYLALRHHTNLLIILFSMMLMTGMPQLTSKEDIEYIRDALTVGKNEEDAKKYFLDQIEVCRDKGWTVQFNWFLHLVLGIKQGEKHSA
T2 sequence (Q12809 whole entry): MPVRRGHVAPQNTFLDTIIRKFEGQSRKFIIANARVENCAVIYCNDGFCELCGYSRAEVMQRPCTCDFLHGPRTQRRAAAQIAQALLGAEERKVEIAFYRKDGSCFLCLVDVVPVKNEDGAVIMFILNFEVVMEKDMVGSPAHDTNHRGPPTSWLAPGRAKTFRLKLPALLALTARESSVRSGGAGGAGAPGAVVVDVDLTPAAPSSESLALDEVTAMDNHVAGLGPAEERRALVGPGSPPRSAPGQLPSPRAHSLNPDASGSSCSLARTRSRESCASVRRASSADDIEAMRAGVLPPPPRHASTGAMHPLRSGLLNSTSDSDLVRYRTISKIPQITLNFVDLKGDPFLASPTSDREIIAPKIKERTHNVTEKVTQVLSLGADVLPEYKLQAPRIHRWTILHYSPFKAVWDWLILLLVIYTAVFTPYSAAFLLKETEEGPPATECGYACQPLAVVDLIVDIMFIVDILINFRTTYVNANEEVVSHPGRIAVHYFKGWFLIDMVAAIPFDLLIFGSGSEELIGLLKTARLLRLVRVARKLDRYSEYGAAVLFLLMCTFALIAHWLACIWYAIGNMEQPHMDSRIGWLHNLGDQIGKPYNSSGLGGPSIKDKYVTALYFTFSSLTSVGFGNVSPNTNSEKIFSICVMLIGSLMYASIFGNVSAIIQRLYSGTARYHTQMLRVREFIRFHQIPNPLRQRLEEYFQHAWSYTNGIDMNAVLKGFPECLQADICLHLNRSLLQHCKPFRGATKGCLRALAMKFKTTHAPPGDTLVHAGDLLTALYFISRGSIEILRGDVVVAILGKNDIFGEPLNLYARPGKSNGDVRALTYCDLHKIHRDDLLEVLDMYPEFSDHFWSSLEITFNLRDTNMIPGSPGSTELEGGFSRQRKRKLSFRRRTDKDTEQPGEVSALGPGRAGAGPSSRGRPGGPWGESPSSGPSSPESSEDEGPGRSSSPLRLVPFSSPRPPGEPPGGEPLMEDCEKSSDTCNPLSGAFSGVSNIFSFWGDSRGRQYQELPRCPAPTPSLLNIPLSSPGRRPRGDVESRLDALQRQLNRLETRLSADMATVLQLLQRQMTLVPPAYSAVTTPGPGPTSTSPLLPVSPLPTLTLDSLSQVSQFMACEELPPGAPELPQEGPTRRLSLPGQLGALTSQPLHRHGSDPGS

Row | SMILES | inhibition at 50 µM (PI-3 kinase γ [1]; PI3Kγ) [%] | inhibition ratio for the maximum tail current (IKr) [2] [%] | inhibition [3] [%] | percentage of the test compound remained after reacting for 30 minutes (Metabolic stability test) [%] | solubility at 16 h (Solubility test) [µM] | Ki (PI-3 kinase γ [4]) [nM] | inhibition at 10 µM (PI-3 kinase γ [1]; PI3Kγ, compound at 10 μM) [%] | inhibition at 10 µM (PI-3 kinase γ [1]; compound at 10 μmol/L) [%]
1 | CNC(=O)Nc1cc2n(n1)CCN2c1ccc(C(N)=O)cc1 [Compound I-160] | ≥ 95 | −0.4 |  |  |  |  |  | 
2 | CNC(=O)Nc1cc2n(n1)CCN2c1ccc2cnccc2c1 [Compound I-190] | ≥ 95 |  | > 99.5 | 90.5 |  |  |  | 
3 | CC(=O)Nc1cc2n(n1)CCN2c1cccc(Cl)c1 [Compound I-198] | 94 |  | 97.3 |  | > 50 |  |  | 
4 | CCOC(=O)CNC(=O)Nc1nc2c(s1)CN(c1cc(OC)nc(OC)n1)CC2 [Compound I-202] | ≥ 95 |  | > 99.5 |  |  | 49 |  | 
5 | COc1cc(N2CCc3nc(NC(C)=O)sc3C2)nc(OC)n1 [Compound I-214] | ≥ 95 |  | > 99.5 | 98.9 |  |  |  | 
6 | COc1cc(N2CCc3nc(NC(=O)NCCC(=O)NC(C)(C)C)sc3C2)nc(OC)n1 [Compound I-265] |  |  | > 99.5 |  |  | 42 | ≥ 95 | 
7 | COC(=O)[C@H](CC(=O)OC(C)(C)C)NC(=O)Nc1nc2c(s1)CN(c1cc(OC)nc(OC)n1)CC2 [Compound I-277] |  |  |  |  |  | 36 | ≥ 95 | 
8 | CC(=O)Nc1cc2n(n1)CCN2c1ccc2cnccc2c1 [Compound I-284] |  |  | > 99.5 |  |  | 40 | ≥ 95 | 
9 | CC(=O)Nc1cc2n(n1)CCN2c1ccc2c(c1)CCN(C)C2=O [Compound I-287] |  |  | > 99.5 | 94.9 | > 50 |  | ≥ 95 | 
10 | CC(=O)Nc1cc2n(n1)CCN2c1ccc2c(c1)CCNC2=O [Compound I-292] |  |  |  |  |  | 43 |  | ≥ 95
11 | COc1cc(N2CCc3nc(NC(=O)Nc4ccon4)sc3C2)nc(OC)n1 [Compound I-303] |  |  |  | 87.3 |  | 45 |  | 94
12 | COc1cc(N2CCc3nc(NC(=O)NCCC(=O)N4CCCC4)sc3C2)nc(OC)n1 [Compound I-308] |  |  | 98.4 | 92.2 |  |  |  | ≥ 95
13 | COc1cc(N2CCc3nc(NC(=O)NCCC(=O)NC(C)C)sc3C2)nc(OC)n1 [Compound I-309] |  |  | 92 | 93.1 | > 50 |  |  | ≥ 95
14 | COc1cc(N2CCc3nc(NC(=O)NCCC(=O)N(C)C(C)C)sc3C2)nc(OC)n1 [Compound I-310] |  |  | > 99.5 |  |  | 43 |  | ≥ 95
15 | COc1cc(N2CCc3nc(NC(=O)NCCC(=O)N4CCCC4(C)C)sc3C2)nc(OC)n1 [Compound I-318] |  |  | > 99.5 |  | > 50 | 45 |  | ≥ 95
16 | CN1CCc2cc(N3CCn4nc(NC(=O)c5ccsc5)cc43)ccc2C1=O [Compound I-332] |  |  | 96 | 87.2 |  |  |  | ≥ 95
17 | CN1CCc2cc(N3CCn4nc(NC(=O)c5cncs5)cc43)ccc2C1=O [Compound I-341] |  |  | 97.8 |  | > 50 |  |  | ≥ 95
18 | CN1CCc2cc(N3CCn4nc(NC(=O)c5cnco5)cc43)ccc2C1=O [Compound I-348] |  |  | > 99.5 | 94.5 | > 50 |  |  | ≥ 95
19 | CN1CCc2cc(N3CCn4nc(NC(=O)c5cnc(NC(=O)OC(C)(C)C)s5)cc43)ccc2C1=O [Compound I-375] |  |  |  |  |  | 23 |  | ≥ 95
20 | CNC(=O)Nc1nc2c(s1)CN(c1cncc(OC)n1)CC2 [Compound I-378] |  |  | > 99.5 |  | > 50 |  |  | ≥ 95
21 | CN1CCc2cc(N3CCn4nc(NC(=O)c5cnc(N)s5)cc43)ccc2C1=O [Compound I-380] |  |  |  |  |  | 32 |  | ≥ 95
22 | COC(=O)Nc1cc[nH]c1C(=O)Nc1cc2n(n1)CCN2c1ccc2c(c1)CCN(C)C2=O [Compound I-398] |  |  |  |  |  | 49 |  | ≥ 95
23 | CN1CCc2cc(N3CCn4nc(NC(=O)c5ccc(C(=O)NCC(=O)O)s5)cc43)ccc2C1=O [Compound I-415] |  |  |  |  |  | 34 |  | ≥ 95
